In brackets after ≈: the same amount, converted by molar mass. Where two headings read alike, the source gives them in different places.
Tests used:
ZIKV NS2B-NS3 protease = biological target: T1, ZIKV NS2B-NS3 protease (Zika virus, UniProt A0A024B7W1); test: ZIKV NS2B-NS3 protease biochemical FRET assay; settings: ZIKV NS2B-NS3 Ki
T1 construct: directed at the co-expressed ZIKV NS2B-NS3 protease

WNV NS2B-NS3 protease = biological target: T2, WNV NS2B-NS3 protease (West Nile virus, UniProt P06935); test: WNV NS2B-NS3 protease biochemical inhibition
T2 construct: some activity against the WNV NS2B-NS3 protease
T2 sequence (P06935 1424-1463): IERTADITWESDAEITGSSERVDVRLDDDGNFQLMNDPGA
T2 sequence (P06935 1502-1679): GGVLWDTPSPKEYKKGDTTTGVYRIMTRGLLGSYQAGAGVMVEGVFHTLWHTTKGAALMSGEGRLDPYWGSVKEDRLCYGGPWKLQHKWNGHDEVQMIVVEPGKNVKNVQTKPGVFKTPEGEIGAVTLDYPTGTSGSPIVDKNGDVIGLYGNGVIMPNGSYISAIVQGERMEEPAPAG

ZIKV [1] = test: ZIKV antiviral assay (virus-induced cytopathy) in Vero E6 cells with P-gp inhibitor; format: cell-based; settings: Zika virus
Procedure: (§1) Figure 5. (A) Further characterization of ASAP-0027808. Papp was determined in MDR1-MDCK cells. Antiviral assays were performed in Vero E6 cells in a 7-day infection using 0.5 uM CP100356 as a P-gp inhibitor (see Supporting Information for more details). (B) The compound was successfully crystallized with ZIKV NS2B-NS3. ASAP-0016806 and ASAP-0027808 both appear to interact with the same residues (catalytic triad His51/Asp75/Ser135 colored yellow, other key residues Tyr161, NS2B Ser81, and NS2B Asp83 colored green). (C) Dose-dependent suppression of ZIKV-induced cytopathy in VeroE6 cells (n=2); no changes to cell viability of uninfected cells treated with the inhibitor was observed. Cells were co-treated with 0.5 μM CP100356 (as P-gp inhibitor). TEXT PRINTED IN THE PICTURE: (A) ASAP-0027808: ZIKV NS2B-NS3 Ki (μM): 0.090; ZIKV EC50 / CC50 (μM): 4.6 / >50; WNV NS2B-NS3 Ki (μM): 2.9; MW (g/mol): 313; CLint,app, HLM (μL/min/mg): < 10; MDR1-MDCK Papp A→B, B→A (10^-6 cm/sec): 2.0 ,11.0; Kinetic solubility (pH 7.4, μM): 279; LogD: 0.9

[2] = Cytotoxicity in uninfected Vero E6 cells; format: cell-based; settings: African green monkey; Vero cells + Pgpi, printed with WNV EC50; read-out: CC50 (WNV assay, Vero cells + Pgpi)
Procedure: as §1

Vero E6 cells = test: Cytotoxicity in uninfected Vero E6 cells; format: cell-based; settings: Vero E6 cells, 0.5 uM CP100356 as P-gp inhibitor
Procedure: as §1

ZIKV [3] = test: ZIKV antiviral assay in SH-SY5Y cells; format: cell-based; settings: Zika virus
WNV = WNV antiviral assay in Vero cells with P-gp inhibitor; format: cell-based; settings: West Nile virus, read-out: WNV EC50 (Vero cells + Pgpi)
MDR1-MDCK permeability = format: in vitro ADME; settings: dog
Procedure: as §1

[4] = Murine in vivo pharmacokinetics and tolerability; set-up: species or system mice; settings: mouse
Excerpt: Figure 8. […] (B) ASAP-0036543 was assigned the (S) configuration by crystallography and the compound assumed a similar binding mode to that observed with ASAP-0029000. (C) Murine in vivo pharmacokinetics for ASAP-0036543. […] TEXT PRINTED IN THE PICTURE: (A) ASAP-0036543: ZIKV Ki (μM): 0.0029; ZIKV EC50 / EC90 / CC50 (μM, SH-SY5Y cells): 0.48 / 0.75 / 38; ZIKV EC50 / EC90 / CC50 (μM, Vero cells + pgpi): 0.38 / 0.98 / >50; WNV Ki (μM): 0.058; WNV EC50 / CC50 (μM, Vero cells + Pgpi): 1.0 / >50; %F (150, 300, 600 mpk): 96 / 153 / 223; Vd,ss (L/kg): 7.9; CLp (mL/min/kg): 87; CLint,app, HLM, MLM (μL/min/mg): < 10, <10; MDR1-MDCK Papp A→B, B→A (10^-6 cm/sec): 1.2, 16; KSol (pH 7.4, μM): 389; LogD: 1.0
The compound had high kinetic solubility, low microsomal clearance, and acceptable permeability in an MDR1-MDCK cell line. Respectable antiviral potency against WNV in Vero cells was also noted, which had been hitherto difficult to achieve with the chemotype. […] ASAP-0036543 was then advanced to murine pharmacokinetic studies to assess its potential as an in vivo tool compound.[31]

Kinetic solubility = settings: pH 7.4
[5] = Microsomal clearance, HLM; settings: human, microsomes
[6] = Microsomal clearance, MLM; settings: mouse, microsomes
[7] = Cytotoxicity in SH-SY5Y cells; settings: human

T1 sequence (A0A024B7W1 1503-1680): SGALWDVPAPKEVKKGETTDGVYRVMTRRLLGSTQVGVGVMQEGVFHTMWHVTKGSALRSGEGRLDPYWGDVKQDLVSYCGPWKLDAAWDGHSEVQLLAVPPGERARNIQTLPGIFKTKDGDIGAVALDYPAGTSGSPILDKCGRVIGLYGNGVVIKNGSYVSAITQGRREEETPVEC
T1 sequence (A0A024B7W1 1425-1464): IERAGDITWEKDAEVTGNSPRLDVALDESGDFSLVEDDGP

Work on Cc1cc([C@H](Nc2ccc3c(c2)CNC3)C(=O)NCC(F)F)cc(C(F)(F)F)c1 [ASAP-0036543] yielded a Ki (ZIKV NS2B-NS3 protease) of 2.9 nM, a Ki (WNV NS2B-NS3 protease) of 58 nM and an EC50 (ZIKV [1]; Vero C1008, 168 h, read-out: ZIKV EC50) of 380 nM. For the same compound, the EC90 (ZIKV [1]; Vero, read-out: ZIKV EC90 (Vero cells + pgpi)) was 980 nM, the CC50 [2] was over 50000 nM and the CC50 (Vero E6 cells) was over 50000 nM. It also gave an EC50 (ZIKV [3]; read-out: ZIKV EC50 (SH-SY5Y cells)) of 480 nM, an EC90 (ZIKV [3]; read-out: ZIKV EC90 (SH-SY5Y cells)) of 750 nM and an EC50 (WNV) of 1000 nM. For the same compound, the Papp A→B (MDR1-MDCK permeability; MDCK-MDR1, A→B) was 1.2 ×10⁻⁶ cm/s, the Papp B→A (MDR1-MDCK permeability; MDCK-MDR1, B→A) was 16 ×10⁻⁶ cm/s and the bioavailability ([4]; in vivo, 150 mg/kg, PO 150 mpk, read-out: %F) was 96%. It also gave a bioavailability ([4]; in vivo, 300 mg/kg, PO 300 mpk, read-out: %F) of 153%, a bioavailability ([4]; in vivo, 600 mg/kg, PO 600 mpk, read-out: %F (oral bioavailability)) of 223% and a clearance ([4]; in vivo, read-out: CLp) of 87 mL/min/kg. For the same compound, the Vd ([4]; in vivo, read-out: Vd,ss) was 7.9 L/kg, the tolerability ([4]; single PO doses of 150, 300 and 600 mg/kg) was “well-tolerated” and the logD (LogD) was 1. For the same compound, the solubility kinetic (Kinetic solubility) was 389 µM (≈ 161 µg/mL), the microsomal CLint [5] was under 10 µL/min/mg and the microsomal CLint [6] was under 10 µL/min/mg. For the same compound, the CC50 [7] was 38000 nM.

From article doi:10.1101/2025.06.19.660642, “Discovery of orally bioavailable Zika and West Nile Virus antiviral compounds targeting the NS2B-NS3 protease” (bioRxiv, 2025)
